pIC50: −log10 of the molar value.
How the values were obtained:
SV-HUC-1 cell line [1] = test: Ki-67 flow cytometry proliferation assay; type: cell-based, human; settings: SV-HUC-1, 24 h, p < 0.05
Experimental: (§1) For the cell proliferation assay, cells were plated in 100 mm cell culture plates. When the cultures reached 60% confluence, the media were discarded from the wells and replaced with culture media only or media with added compounds (Degrasyn, PR-619) with increasing concentrations for 24 h. The growth medium was then removed from the wells, the cells were rinsed twice with PBS, and 0.25% trypsin-EDTA was added to detach the cells. After 5 min of incubation at 37 °C and 5% CO2, the fresh culture medium was added to inactivate the trypsin, and cells were collected in flow cytometry tubes. Cells were then labeled using the Ki-67 Proliferation Kit BD Pharmingen(BD Biosciences) according to the manufacturer’s instructions and analyzed using a flow cytometer (Cytoflex, Beckman Coulter). Unstained control cells were used for gating to determine the percentage of the proliferation of the Ki-67-positive cells in the samples. Percentages of proliferating (Ki-67 positive) cells were used to calculate the means ± SD for each cell line. The presented results were obtained from three independent experiments.

T24 cell line [2] = test: Ki-67 flow cytometry proliferation assay; type: cell-based, human; settings: T24, 24 h, p < 0.05
Experimental: as §1

γH2AX in T24 cell line = test: Western blot for γH2AX (DNA damage); type: cell-based, human; settings: T24, 24 h
Experimental: (§2) Western blot was performed to assess the expression of USP5, USP9X, and USP14 in analyzed cell lines. After 24 h of incubation with increasing concentrations of Degrasyn and PR-619, the expression of proteins involved in apoptosis (Bcl-2 and Bcl-xl) and a marker of DNA damage (γH2A.X) was also evaluated. Briefly, cells were rinsed with cold phosphate-buffered saline (PBS), suspended in lysis buffer (50 mM Tris-HCl pH 7.5, 100 mM NaCl, 1% NP-40, protease inhibitors set), and incubated for 20 min on ice. Subsequently, after centrifuging at 10,000 rpm at 4 °C for 12 min, sodium dodecyl sulfate (SDS) sample buffer was added to […]. After boiling for 5 min at 95 °C, the samples were subjected to SDS-polyacrylamide gel electrophoresis on 8–15% gel. For USP5, USP9X, USP14, γH2A.X, Bcl-2, and Bcl-xl expression analysis, transfers onto nitrocellulose membranes were performed using a Semidry Transfer Cell or wet transfer method (Bio-Rad, Hercules, CA, USA). After transfer, the membranes were blocked with 1% casein in TBS (or 3% BSA for γH2Ax) at room temperature for 1 h. […]

SV-HUC-1 cell line [3] = test: MTT cell proliferation assay; type: cell-based, human; settings: for cells killed at the highest concentration: SV-HUC-1, MTT, highest concentration used (20 μM)
Experimental: (§3) Cell proliferation was determined using the 3-(4,5-dimethylthiazol-2-yl)-2,5-diphenyltetrazolium bromide (MTT) assay (Sigma-Aldrich, Steinheim, Germany). Cells were plated at a density of 1 × 10^5 cells per mL in 96-well plates (Thermo Fisher Scientific, Roskilde, Denmark) and allowed to attach overnight. Subsequently, Degrasyn and PR-619 were added in increasing concentrations (0.6, 1.25, 2.5, 5, 10, and 20 μM). After incubation for 24, 48, and 72 h with either the compounds or in the medium alone, 20 μL of MTT solution (5 mg/mL) was added to each well. After an additional 4 h, 80 μL of the lysis buffer (225 mL DMF, 67.5 g SDS, and 275 mL distilled water) was added to each well. After dissolving the content, the absorbance was measured at a […] of 570 nm using a spectrophotometric microplate reader Spark (Tecan). The values were obtained from 3 independent experiments (different plates, different days). Based on the results, the concentration that inhibited 50% of the cell proliferation (IC50) was calculated for all incubation intervals.

T24 cell line [4] = test: MTT cell proliferation assay; type: cell-based, human; settings: for cells killed at the highest concentration: T24, MTT, highest concentration used (20 μM)
Experimental: as §3

SV-HUC-1 cell line [5] = test: Annexin V-FITC/PI apoptosis flow cytometry; type: cell-based, human; settings: SV-HUC-1, 24 h; for pro-apoptotic effect (number of apoptotic cells vs control): increasing concentrations up to approximately IC50
Experimental: (§4) To assess the level of apoptosis induced by Degrasyn and PR-619, cells were seeded at a density of 1 × 10^5/mL in 96-well plates (TPP, Trasadingen, Switzerland) and incubated for 24 h with increasing concentrations of compounds. Cells were then collected, suspended in a binding buffer, and stained with Annexin V-FITC for 10 min at room temperature. Subsequently, PI was added, and flow cytometric analysis was immediately performed using a flow cytometers (FACS Calibur, Becton Dickinson, Biosciences, San Jose, CA, USA; CytoFlex, Beckman Coulter, CA, USA). CellQuest 3.lf. (Becton Dickinson, San Jose, CA, USA) and CytExpert 2.4 (Beckman Coulter, CA, USA) software were used for data analysis.

T24 cell line [6] = test: Annexin V-FITC/PI apoptosis flow cytometry; type: cell-based, human; settings: T24, 24 h; for pro-apoptotic effect (number of apoptotic cells vs control): increasing concentrations up to approximately IC50
Experimental: as §4

[7] = tested on: Bcl-xl in all cell lines (SV-HUC-1, T24, K9TCC-PU-NK, RDSVS-TCC1); test: Western blot for Bcl-xl expression; type: cell-based, human and canine; settings: 24 h
Experimental: as §2

K9TCC-PU-NK cell line [8] = test: Ki-67 flow cytometry proliferation assay; type: cell-based, canine; settings: 24 h, p < 0.05
Experimental: as §1

RDSVS-TCC1 cell line [9] = test: Ki-67 flow cytometry proliferation assay; type: cell-based, canine; settings: RDSVS-TCC1, 24 h, p < 0.05
Experimental: as §1

K9TCC-PU-NK cell line [10] = test: Annexin V-FITC/PI apoptosis flow cytometry; type: cell-based, canine; settings: 24 h
Experimental: as §4

RDSVS-TCC1 cell line [11] = test: Annexin V-FITC/PI apoptosis flow cytometry; type: cell-based, canine; settings: RDSVS-TCC1, 24 h; for pro-apoptotic effect (number of apoptotic cells vs control): increasing concentrations up to approximately IC50
Experimental: as §4

[12] = tested on: USP5 protein in T24 cells; test: Western blot for USP5 expression; type: cell-based, human; settings: T24, 24 h; Degrasyn 0.6, 1.25, 2.5 μM; PR-619 1.25, 2.5, 5 μM
Experimental: as §2

[13] = only highest concentration 10 µM
[14] = only highest concentration 5 µM

N#CSc1cc(SC#N)c(N)nc1N [PR-619]
percentage of Ki-67 positive cells (as compared to control) (SV-HUC-1 cell line [1]; [13]): significantly decreased | percentage of Ki-67 positive cells (as compared to the control) (T24 cell line [2]; 5–10 µM): significantly decreased | amount of γH2AX (γH2AX in T24 cell line; highest concentrations of the drug): only a slight visible increase | cells killed at the highest concentration (SV-HUC-1 cell line [3]): ~100% | cells killed at the highest concentration (T24 cell line [4]): ~100% | percentage of early and late apoptotic cells (SV-HUC-1 cell line [5]; 5 μM): 14.8 ± 5.8% | pro-apoptotic effect (number of apoptotic cells vs control) (SV-HUC-1 cell line [5]): did not show a significant pro-apoptotic effect | percentage of early and late apoptotic cells (T24 cell line [6]; 5 μM): 9.8 ± 1.5% | pro-apoptotic effect (number of apoptotic cells vs control) (T24 cell line [6]): did not show a significant pro-apoptotic effect | Bcl-xl expression ([7]; analyzed cell lines, increasing concentrations): No clearly visible changes | percentage of Ki-67 positive cells (as compared to control) (K9TCC-PU-NK cell line [8]; [13]): significantly decreased | percentage of Ki-67 positive cells (as compared to control) (RDSVS-TCC1 cell line [9]; [13]): significantly decreased | percentage of early and late apoptotic cells (K9TCC-PU-NK cell line [10]; 5 μM): 8.4 ± 0.8% | pro-apoptotic effect (number of apoptotic cells vs control) (K9TCC-PU-NK cell line [10]; increasing concentrations up to approximately IC50): did not show a significant pro-apoptotic effect | percentage of early and late apoptotic cells (RDSVS-TCC1 cell line [11]; 5 μM): 17.2 ± 6.5% | pro-apoptotic effect (number of apoptotic cells vs control) (RDSVS-TCC1 cell line [11]): did not show a significant pro-apoptotic effect | USP5 protein expression [12]: no visible effect

CCC[C@H](NC(=O)/C(C#N)=C/c1cccc(Br)n1)c1ccccc1 [Degrasyn]
percentage of Ki-67 positive cells (as compared to control) (SV-HUC-1 cell line [1]; [14]): significantly decreased | percentage of Ki-67 positive cells (as compared to the control) (T24 cell line [2]; 2.5–5 µM): significantly decreased | expression of γH2AX (γH2AX in T24 cell line; 2.5 µM and 5 µM): high expression | pIC50 (SV-HUC-1 cell line [3]; SV-HUC-1, 24 h exposure, MTT, read-out: IC50 (concentration that inhibited 50% of the cell proliferation)): 5.63 | cells killed at the highest concentration (SV-HUC-1 cell line [3]): ~100% | pIC50 (T24 cell line [4]; T24, 24 h exposure, MTT, read-out: IC50 (concentration that inhibited 50% of the cell proliferation)): 5.51 | cells killed at the highest concentration (T24 cell line [4]): ~100% | percentage of early and late apoptotic cells (SV-HUC-1 cell line [5]; 2.5 μM): 24.1 ± 2.8% | pro-apoptotic effect (number of apoptotic cells vs control) (SV-HUC-1 cell line [5]): significant increase | percentage of early and late apoptotic cells (T24 cell line [6]; 2.5 μM): 32.2 ± 9.2% | pro-apoptotic effect (number of apoptotic cells vs control) (T24 cell line [6]): significant increase | Bcl-xl expression ([7]; all cell lines, 5 μM): slightly reduced | percentage of Ki-67 positive cells (as compared to control) (K9TCC-PU-NK cell line [8]; [14]): significantly decreased | percentage of Ki-67 positive cells (as compared to control) (RDSVS-TCC1 cell line [9]; [14]): significantly decreased | percentage of early and late apoptotic cells (K9TCC-PU-NK cell line [10]; 2.5 μM): 11.8 ± 3.4% | percentage of early and late apoptotic cells (RDSVS-TCC1 cell line [11]; 2.5 μM): 42.4 ± 2.3% | pro-apoptotic effect (number of apoptotic cells vs control) (RDSVS-TCC1 cell line [11]): significant increase | USP5 protein expression [12]: clearly decreased

Source: publication PMC10045593, “Ubiquitin-Specific Proteases as Potential Therapeutic Targets in Bladder Cancer—In Vitro Evaluation of Degrasyn and PR-619 Activity Using Human and Canine Models” (Biomedicines, 2023)
